Measurements reported in patent publication US20180185408A1, “ANTIFUNGAL NYLON-3 POLYMERS AND COMBINATION THERAPY USING THEM TO TREAT FUNGAL INFECTIONS” (priority 2016, published 2018).
Where two headings read alike, the source gives them in different places.

Key:
Candida albicans = test: MIC by broth microdilution (CLSI M27-A3); assay type: cell-based
Candida lusitaniae = test: MIC by broth microdilution (CLSI M27-A3); assay type: cell-based

`C[C@@H]1[C@H](O)[C@@H](C)/C=C/C=C/C=C/C=C/C=C/C=C/C=C/[C@H](O[C@@H]2O[C@H](C)[C@@H](O)[C@H](N)[C@@H]2O)C[C@@H]2O[C@](O)(C[C@@H](O)C[C@@H](O)[C@H](O)CC[C@@H](O)C[C@@H](O)CC(=O)O[C@H]1C)C[C@H](O)[C@H]2C(=O)O` [AMB, amphotericin B] was tested, and the MIC (Candida albicans; C. albicans (E4), Amp B Resistant, RPMI 1640 (0.2% Glucose), […]10^5 cells/mL, 30° C.) was 3.13 mg/L, the MIC (Candida albicans; C. albicans (E4), […]10^3 cells/mL, 35°C, read-out: MIC) was 3.4 µM and the MIC (Candida albicans; C. albicans (Gu5), Fluconazole Resistant, RPMI 1640 (0.2% Glucose), […]10^5 cells/mL, 30° C.) was 0.78 mg/L. For the same molecule, the MIC (Candida albicans; C. albicans (Gu5), […]10^3 cells/mL, 35°C, read-out: MIC) was 0.9 µM, the MIC (Candida albicans; C. albicans (K1), Fluconazole Resistant, RPMI 1640 (0.2% Glucose), […]10^5 cells/mL, 30° C.) was 0.78 mg/L and the MIC (Candida albicans; C. albicans (K1), […]10^3 cells/mL, 35°C, read-out: MIC) was 1.7 µM. It also gave an MIC (Candida albicans; C. albicans (SC5314), […]10^3 cells/mL, 35°C, read-out: MIC) of 0.9 µM, an MIC (Candida albicans; C. albicans (SCG5314), Sensitive, RPMI 1640 (0.2% Glucose), […]10^5 cells/mL, 30° C.) of 0.78 mg/L and an MIC (Candida albicans; E4, […]10^3 cells/mL, 35°C, OD600 24 h, avg.) of 6.3 mg/L. It also gave an MIC (Candida albicans; E4, […]10^3 cells/mL, 35°C, OD600 24 h, avg., read-out: MIC) of 6.8 µM, an MIC (Candida albicans; E4, […]10^3 cells/mL, 35°C, OD600 24 h, trial 1) of 6.3 mg/L and an MIC (Candida albicans; E4, […]10^3 cells/mL, 35°C, OD600 24 h, trial 1, read-out: MIC) of 6.8 µM. The MIC (Candida albicans; E4, […]10^3 cells/mL, 35°C, OD600 24 h, trial 2) was 6.3 mg/L, the MIC (Candida albicans; E4, […]10^3 cells/mL, 35°C, OD600 24 h, trial 2, read-out: MIC) was 6.8 µM and the MIC (Candida albicans; E4, […]10^5 cells/mL, 30°C, OD600 48 h, avg.) was 3.1 mg/L. The MIC (Candida albicans; E4, […]10^5 cells/mL, 30°C, OD600 48 h, avg., read-out: MIC) was 3.4 µM, the MIC (Candida albicans; E4, […]10^5 cells/mL, 30°C, OD600 48 h, trial 1) was 3.1 mg/L and the MIC (Candida albicans; E4, […]10^5 cells/mL, 30°C, OD600 48 h, trial 1, read-out: MIC) was 3.4 µM. It also gave an MIC (Candida albicans; E4, […]10^5 cells/mL, 30°C, OD600 48 h, trial 2) of 3.1 mg/L, an MIC (Candida albicans; E4, […]10^5 cells/mL, 30°C, OD600 48 h, trial 2, read-out: MIC) of 3.4 µM and an MIC (Candida albicans; Gu5, […]10^3 cells/mL, 35°C, OD600 24 h, avg.) of 2.0 mg/L. For the same molecule, the MIC (Candida albicans; Gu5, […]10^3 cells/mL, 35°C, OD600 24 h, avg., read-out: MIC) was 2.2 µM, the MIC (Candida albicans; Gu5, […]10^3 cells/mL, 35°C, OD600 24 h, trial 1) was less than 1.6 mg/L and the MIC (Candida albicans; Gu5, […]10^3 cells/mL, 35°C, OD600 24 h, trial 1, read-out: MIC) was less than 1.7 µM. For the same molecule, the MIC (Candida albicans; Gu5, […]10^3 cells/mL, 35°C, OD600 24 h, trial 2) was 3.1 mg/L, the MIC (Candida albicans; Gu5, […]10^3 cells/mL, 35°C, OD600 24 h, trial 2, read-out: MIC) was 3.4 µM and the MIC (Candida albicans; Gu5, […]10^5 cells/mL, 30°C, OD600 48 h, avg.) was 0.8 mg/L. It also gave an MIC (Candida albicans; Gu5, […]10^5 cells/mL, 30°C, OD600 48 h, avg., read-out: MIC) of 0.9 µM, an MIC (Candida albicans; Gu5, […]10^5 cells/mL, 30°C, OD600 48 h, trial 1) of 0.8 mg/L and an MIC (Candida albicans; Gu5, […]10^5 cells/mL, 30°C, OD600 48 h, trial 1, read-out: MIC) of 0.9 µM. It also gave an MIC (Candida albicans; Gu5, […]10^5 cells/mL, 30°C, OD600 48 h, trial 2) of 0.8 mg/L, an MIC (Candida albicans; Gu5, […]10^5 cells/mL, 30°C, OD600 48 h, trial 2, read-out: MIC) of 0.9 µM and an MIC (Candida albicans; K1, […]10^3 cells/mL, 35°C, OD600 24 h, avg.) of less than 1.6 mg/L. For the same molecule, the MIC (Candida albicans; K1, […]10^3 cells/mL, 35°C, OD600 24 h, avg., read-out: MIC) was less than 1.7 µM, the MIC (Candida albicans; K1, […]10^3 cells/mL, 35°C, OD600 24 h, trial 1) was less than 1.6 mg/L and the MIC (Candida albicans; K1, […]10^3 cells/mL, 35°C, OD600 24 h, trial 1, read-out: MIC) was less than 1.7 µM. The MIC (Candida albicans; K1, […]10^3 cells/mL, 35°C, OD600 24 h, trial 2) was less than 1.6 mg/L, the MIC (Candida albicans; K1, […]10^3 cells/mL, 35°C, OD600 24 h, trial 2, read-out: MIC) was less than 1.7 µM and the MIC (Candida albicans; K1, […]10^5 cells/mL, 30°C, OD600 48 h, avg.) was 1.6 mg/L. It also gave an MIC (Candida albicans; K1, […]10^5 cells/mL, 30°C, OD600 48 h, avg., read-out: MIC) of 1.7 µM, an MIC (Candida albicans; K1, […]10^5 cells/mL, 30°C, OD600 48 h, trial 1) of 1.6 mg/L and an MIC (Candida albicans; K1, […]10^5 cells/mL, 30°C, OD600 48 h, trial 1, read-out: MIC) of 1.7 µM. For the same molecule, the MIC (Candida albicans; K1, […]10^5 cells/mL, 30°C, OD600 48 h, trial 2) was 1.6 mg/L, the MIC (Candida albicans; K1, […]10^5 cells/mL, 30°C, OD600 48 h, trial 2, read-out: MIC) was 1.7 µM and the MIC (Candida albicans; SC5314, […]10^3 cells/mL, 35°C, OD600 24 h, avg.) was 4.7 mg/L. The MIC (Candida albicans; SC5314, […]10^3 cells/mL, 35°C, OD600 24 h, avg., read-out: MIC) was 5.1 µM, the MIC (Candida albicans; SC5314, […]10^3 cells/mL, 35°C, OD600 24 h, trial 1) was 3.1 mg/L and the MIC (Candida albicans; SC5314, […]10^3 cells/mL, 35°C, OD600 24 h, trial 1, read-out: MIC) was 3.4 µM. For the same molecule, the MIC (Candida albicans; SC5314, […]10^3 cells/mL, 35°C, OD600 24 h, trial 2) was 6.3 mg/L, the MIC (Candida albicans; SC5314, […]10^3 cells/mL, 35°C, OD600 24 h, trial 2, read-out: MIC) was 6.8 µM and the MIC (Candida albicans; SC5314, […]10^5 cells/mL, 30°C, OD600 48 h, avg.) was 0.8 mg/L. For the same molecule, the MIC (Candida albicans; SC5314, […]10^5 cells/mL, 30°C, OD600 48 h, avg., read-out: MIC) was 0.9 µM, the MIC (Candida albicans; SC5314, […]10^5 cells/mL, 30°C, OD600 48 h, trial 1) was 0.8 mg/L and the MIC (Candida albicans; SC5314, […]10^5 cells/mL, 30°C, OD600 48 h, trial 1, read-out: MIC) was 0.9 µM. The MIC (Candida albicans; SC5314, […]10^5 cells/mL, 30°C, OD600 48 h, trial 2) was 0.8 mg/L, the MIC (Candida albicans; SC5314, […]10^5 cells/mL, 30°C, OD600 48 h, trial 2, read-out: MIC) was 0.9 µM and the MIC (Candida lusitaniae; C. Lusitania (CL3), Sensitive, RPMI 1640 (0.2% Glucose), […]10^5 cells/mL, 30° C.) was 0.4 mg/L. It also gave an MIC (Candida lusitaniae; C. lusitaniae (CL3), […]10^3 cells/mL, 35°C, read-out: MIC) of 0.4 µM, an MIC (Candida lusitaniae; CL3, […]10^3 cells/mL, 35°C, OD600 24 h, avg.) of less than 1.6 mg/L and an MIC (Candida lusitaniae; CL3, […]10^3 cells/mL, 35°C, OD600 24 h, avg., read-out: MIC) of less than 1.7 µM. It also gave an MIC (Candida lusitaniae; CL3, […]10^3 cells/mL, 35°C, OD600 24 h, trial 1) of less than 1.6 mg/L, an MIC (Candida lusitaniae; CL3, […]10^3 cells/mL, 35°C, OD600 24 h, trial 1, read-out: MIC) of less than 1.7 µM and an MIC (Candida lusitaniae; CL3, […]10^3 cells/mL, 35°C, OD600 24 h, trial 2) of less than 1.6 mg/L. The MIC (Candida lusitaniae; CL3, […]10^3 cells/mL, 35°C, OD600 24 h, trial 2, read-out: MIC) was less than 1.7 µM, the MIC (Candida lusitaniae; CL3, […]10^5 cells/mL, 30°C, OD600 48 h, avg.) was 0.4 mg/L and the MIC (Candida lusitaniae; CL3, […]10^5 cells/mL, 30°C, OD600 48 h, avg., read-out: MIC) was 0.4 µM.
